Source: US9511057B2, “Methods for treating denervation-induced muscle atrophy” (THE BOARD OF TRUSTEES OF THE LELAND STANFORD JUNIOR …, priority 2013, dated 2016)
Where “and” joins values, the source holds several entries; their conditions need not be identical. Equal entries are not always repeated.

Experiment: Body weight and innervated muscle weight under rapamycin treatment (Table 2)
Format: in vivo, mouse
Set-up: key to Body weight before / Body weight after: body weight in g; Gastroc weight, innervated muscle: unit not given here
Settings: for Gastroc weight, innervated muscle / TA weight, innervated muscle / sol (soleus) weight, innervated muscle / Body weight after / Body weight before: individual mice; for TA weight, innervated muscle, MEAN / sol (soleus) weight, innervated muscle, MEAN / Body weight after, MEAN / Body weight before, MEAN: mean of 6 mice; for Body weight after, MEAN / Body weight before, MEAN: in g
Experimental: Rapamycin (LC Laboratories; Woburn, Mass.) was initially dissolved in 100% ethanol, stored at −20° C., and further diluted in an aqueous solution of 5.2% Tween 80 and 5.2% PEG 400 (final ethanol concentration, 2%) immediately before use (Wendel et al., 2004). Denervated NSA mice (male, 40 g) were injected immediately with rapamycin i.p. at 1.5 mg/kg, or 6 mg/kg body weight, every other day. Control mice were injected with vehicle with the same amount of ethanol solvent with rapamycin group (6 mg·kg). Muscle samples were collected 15 days later. Muscle wet weight was recorded immediately. For immunostaining, muscles were frozen in OCT in dry ice-cold isopentane. For RNA and protein extraction, muscles were quickly frozen in liquid nitrogen. Student t-test was used to evaluate the statistical significance. P<0.05 was considered as statistically significant. Each of these experiments were performed such that there were 3 to 6 separate experimental mice (for each genotype, dose, and time-point) and 3-6 separate control mice per experiment.

[1] = Inn + 1.5 (rapamycin 1.5 mg/kg i.p. every other day, 15 days), in g (unit assumed)
[2] = Inn + 1.5 (rapamycin 1.5 mg/kg), in g (unit assumed)
[3] = Inn + 6 (rapamycin 6 mg/kg i.p. every other day, 15 days)
[4] = Inn + 6 (rapamycin 6 mg/kg), in g (unit assumed)
[5] = rapamycin at the doses used (1.5 or 6 mg/kg i.p. every other day)

Compound: CO[C@H]1C[C@@H]2CC[C@@H](C)[C@@](O)(O2)C(=O)C(=O)N2CCCC[C@H]2C(=O)O[C@H]([C@H](C)C[C@@H]2CC[C@@H](O)[C@H](OC)C2)CC(=O)[C@H](C)/C=C(\C)[C@@H](O)[C@@H](OC)C(=O)[C@H](C)C[C@H](C)/C=C/C=C/C=C/1C [rapamycin, Rapamycin]
- Gastroc weight, innervated muscle (Inn + 1.5 (rapamycin 1.5 mg/kg i.p. every other day, 15 days)): 0.1984 and 0.2043 and 0.2062 and 167.3 and 196.7
- TA weight, innervated muscle [1]: 0.0719 and 0.0697 and 0.068 and 0.0898 and 0.0795 and 0.0597
- sol (soleus) weight, innervated muscle [1]: 0.0114 and 0.0095 and 0.0099 and 0.0106 and 0.0102 and 0.0075
- TA weight, innervated muscle, MEAN [2]: 0.0731
- sol (soleus) weight, innervated muscle, MEAN [2]: 0.00985
- Gastroc weight, innervated muscle [3]: 0.2084 and 0.2168 and 0.1798 and 217.7 and 230.5
- sol (soleus) weight, innervated muscle [3]: 0.0102 and 0.0116 and 0.0106 (3×) and 0.0115
- TA weight, innervated muscle (Inn + 6 (rapamycin 6 mg/kg i.p. every other day, 15 days), in g (unit assumed)): 0.0686 and 0.0751 and 0.0645 and 0.078 and 0.0713 and 0.0759
- TA weight, innervated muscle, MEAN [4]: 0.07223
- sol (soleus) weight, innervated muscle, MEAN [4]: 0.01085
- Body weight after (Rapa − 1.5, after): 45 and 46 and 42 (2×) and 40 and 39
- Body weight after, MEAN (Rapa − 1.5, after): 42.33
- Body weight before (Rapa − 1.5, before): 41 g (2×) and 46 g and 44 g and 42 g (2×)
- Body weight before, MEAN (Rapa − 1.5, before): 42.67
- Body weight after (Rapa − 6, after, in g (unit assumed)): 46 and 38 and 41 and 42 and 40 and 39
- Body weight after, MEAN (Rapa − 6, after): 41
- Body weight before (Rapa − 6, before, in g (unit assumed)): 39 and 42 and 55 and 43 and 41 and 44
- Body weight before, MEAN (Rapa − 6, before): 44
- influence on body weight [5]: did not influence
- influence on innervated muscle weight [5]: does not change
- influence on innervated muscle weight (rapamycin at the doses used (1.5 or 6 mg/kg i.p. every other day), listed as Rapamycin): did not influence
